Species: Rattus norvegicus
Experiment: DrugMatrix - Regimen: Daily Repeat
Assay type: toxicity, organism-based, Sprague-Dawley
Design: regimen Daily Repeat, gender Male, age 6-8 weeks
Details: in vivo, po, route oral GAVAGE, vehicle .5 % CMC; for ABSOLUTE BASOPHIL / ABSOLUTE EOSINOPHIL / ABSOLUTE LYMPHOCYTE / ABSOLUTE MONOCYTE / ABSOLUTE SEGMENTED NEUTROPHIL / BASOPHIL / EOSINOPHIL / ERYTHROCYTE COUNT / HEMATOCRIT / HEMOGLOBIN / LEUKOCYTE COUNT / LYMPHOCYTE / MEAN CORPUSCULAR HEMOGLOBIN / MEAN CORPUSCULAR HEMOGLOBIN CONCENTRATION / MEAN CORPUSCULAR VOLUME / MONOCYTE / NEUTROPHIL / NUCLEATED RED BLOOD CELLS / PLATELET COUNT: tissue Blood; for ALANINE AMINOTRANSFERASE / ALBUMIN / ALKALINE PHOSPHATASE / ASPARTATE AMINOTRANSFERASE / BLOOD UREA NITROGEN / CARBON DIOXIDE / CHLORIDE / CHOLESTEROL / CREATINE PHOSPHOKINASE / CREATININE / GLUCOSE / LACTATE DEHYDROGENASE / LIPASE / PHOSPHORUS / POTASSIUM / SODIUM / TOTAL BILIRUBIN / TOTAL PROTEIN / URIC ACID: tissue Plasma
[1] = 0 mg/kg, 72 h, dose level Control, time 3 day
[2] = 0 mg/kg, 120 h, dose level Control, time 5 day
[3] = 25 mg/kg, 72 h, dose level Low, time 3 day
[4] = 25 mg/kg, 120 h, dose level Low, time 5 day

## CCCCC1C(=O)N(c2ccccc2)N(c2ccccc2)C1=O [PHENYLBUTAZONE]
[1]
  ABSOLUTE BASOPHIL: 0 CELLS/uL
  ABSOLUTE EOSINOPHIL: 35.67 CELLS/uL
  ABSOLUTE LYMPHOCYTE: 9125.17 CELLS/uL
  ABSOLUTE MONOCYTE: 50.17 CELLS/uL
  ABSOLUTE SEGMENTED NEUTROPHIL: 722.33 CELLS/uL
  BASOPHIL: 0%
  EOSINOPHIL: 0.33%
  ERYTHROCYTE COUNT: 5.35 x10E6/uL
  HEMATOCRIT: 33.58%
  HEMOGLOBIN: 13.35 G/DL
  LEUKOCYTE COUNT: 9.93 x10E3/uL
  LYMPHOCYTE: 91.67%
  MEAN CORPUSCULAR HEMOGLOBIN: 25 pg
  MEAN CORPUSCULAR HEMOGLOBIN CONCENTRATION: 39.8 G/DL
  MEAN CORPUSCULAR VOLUME: 62.77 fL
  MONOCYTE: 0.67%
  NEUTROPHIL: 7.33%
  NUCLEATED RED BLOOD CELLS: 0 /100WBC
  PLATELET COUNT: 866.17 x10E3/uL
  ALANINE AMINOTRANSFERASE: 57.17 u/L
  ALBUMIN: 4.22 G/DL
  ALKALINE PHOSPHATASE: 391 u/L
  ASPARTATE AMINOTRANSFERASE: 95.17 u/L
  BLOOD UREA NITROGEN: 13.67 mg/dL
  CARBON DIOXIDE: 30 mmol/L
  CHLORIDE: 102.5 MEQ/L
  CHOLESTEROL: 72 mg/dL
  CREATINE PHOSPHOKINASE: 485.67 u/L
  CREATININE: 0.27 mg/dL
  GLUCOSE: 152 mg/dL
  LACTATE DEHYDROGENASE: 372.67 u/L
  LIPASE: 9.83 u/L
  PHOSPHORUS: 12.47 mg/dL
  POTASSIUM: 6.81 MEQ/L
  SODIUM: 144.1 MEQ/L
  TOTAL BILIRUBIN: 0.23 mg/dL
  TOTAL PROTEIN: 5.93 G/DL
  URIC ACID: 1.9 mg/dL
[2]
  ABSOLUTE BASOPHIL: 0 CELLS/uL
  ABSOLUTE EOSINOPHIL: 67.33 CELLS/uL
  ABSOLUTE LYMPHOCYTE: 11419.17 CELLS/uL
  ABSOLUTE MONOCYTE: 203.17 CELLS/uL
  ABSOLUTE SEGMENTED NEUTROPHIL: 1327 CELLS/uL
  BASOPHIL: 0%
  EOSINOPHIL: 0.5%
  ERYTHROCYTE COUNT: 5.65 x10E6/uL
  HEMATOCRIT: 35.3%
  HEMOGLOBIN: 13.98 G/DL
  LEUKOCYTE COUNT: 13.02 x10E3/uL
  LYMPHOCYTE: 88%
  MEAN CORPUSCULAR HEMOGLOBIN: 24.78 pg
  MEAN CORPUSCULAR HEMOGLOBIN CONCENTRATION: 39.63 G/DL
  MEAN CORPUSCULAR VOLUME: 62.58 fL
  MONOCYTE: 1.33%
  NEUTROPHIL: 10.17%
  NUCLEATED RED BLOOD CELLS: 0 /100WBC
  PLATELET COUNT: 1213.83 x10E3/uL
  ALANINE AMINOTRANSFERASE: 49.67 u/L
  ALBUMIN: 4.28 G/DL
  ALKALINE PHOSPHATASE: 362.33 u/L
  ASPARTATE AMINOTRANSFERASE: 99 u/L
  BLOOD UREA NITROGEN: 20.67 mg/dL
  CARBON DIOXIDE: 26.33 mmol/L
  CHLORIDE: 102 MEQ/L
  CHOLESTEROL: 63.83 mg/dL
  CREATINE PHOSPHOKINASE: 481.83 u/L
  CREATININE: 0.21 mg/dL
  GLUCOSE: 158 mg/dL
  LACTATE DEHYDROGENASE: 656.33 u/L
  LIPASE: 10.67 u/L
  PHOSPHORUS: 12.27 mg/dL
  POTASSIUM: 6.17 MEQ/L
  SODIUM: 143.35 MEQ/L
  TOTAL BILIRUBIN: 0.17 mg/dL
  TOTAL PROTEIN: 6.13 G/DL
  URIC ACID: 1.48 mg/dL
[3]
  ABSOLUTE BASOPHIL: 0 CELLS/uL
  ABSOLUTE EOSINOPHIL: 0 CELLS/uL
  ABSOLUTE LYMPHOCYTE: 8397.33 CELLS/uL
  ABSOLUTE MONOCYTE: 56.33 CELLS/uL
  ABSOLUTE SEGMENTED NEUTROPHIL: 846.33 CELLS/uL
  BASOPHIL: 0%
  EOSINOPHIL: 0%
  ERYTHROCYTE COUNT: 5.18 x10E6/uL
  HEMATOCRIT: 33.27%
  HEMOGLOBIN: 13.33 G/DL
  LEUKOCYTE COUNT: 9.3 x10E3/uL
  LYMPHOCYTE: 90.67%
  MEAN CORPUSCULAR HEMOGLOBIN: 25.83 pg
  MEAN CORPUSCULAR HEMOGLOBIN CONCENTRATION: 40.17 G/DL
  MEAN CORPUSCULAR VOLUME: 64.37 fL
  MONOCYTE: 0.67%
  NEUTROPHIL: 8.67%
  NUCLEATED RED BLOOD CELLS: 0 /100WBC
  PLATELET COUNT: 982.67 x10E3/uL
  ALANINE AMINOTRANSFERASE: 57 u/L
  ALBUMIN: 4.4 G/DL
  ALKALINE PHOSPHATASE: 377 u/L
  ASPARTATE AMINOTRANSFERASE: 101.33 u/L
  BLOOD UREA NITROGEN: 16.33 mg/dL
  CARBON DIOXIDE: 29.33 mmol/L
  CHLORIDE: 103 MEQ/L
  CHOLESTEROL: 73 mg/dL
  CREATINE PHOSPHOKINASE: 583.33 u/L
  CREATININE: 0.17 mg/dL
  GLUCOSE: 154.67 mg/dL
  LACTATE DEHYDROGENASE: 337.67 u/L
  LIPASE: 8.67 u/L
  PHOSPHORUS: 12.6 mg/dL
  POTASSIUM: 6.38 MEQ/L
  SODIUM: 143.37 MEQ/L
  TOTAL BILIRUBIN: 0.13 mg/dL
  TOTAL PROTEIN: 5.87 G/DL
  URIC ACID: 1.67 mg/dL
[4]
  ABSOLUTE BASOPHIL: 0 CELLS/uL
  ABSOLUTE EOSINOPHIL: 72 CELLS/uL
  ABSOLUTE LYMPHOCYTE: 8896 CELLS/uL
  ABSOLUTE MONOCYTE: 33 CELLS/uL
  ABSOLUTE SEGMENTED NEUTROPHIL: 999 CELLS/uL
  BASOPHIL: 0%
  EOSINOPHIL: 0.67%
  ERYTHROCYTE COUNT: 5 x10E6/uL
  HEMATOCRIT: 31.63%
  HEMOGLOBIN: 12.6 G/DL
  LEUKOCYTE COUNT: 10 x10E3/uL
  LYMPHOCYTE: 89%
  MEAN CORPUSCULAR HEMOGLOBIN: 25.27 pg
  MEAN CORPUSCULAR HEMOGLOBIN CONCENTRATION: 39.87 G/DL
  MEAN CORPUSCULAR VOLUME: 63.4 fL
  MONOCYTE: 0.33%
  NEUTROPHIL: 10%
  NUCLEATED RED BLOOD CELLS: 0 /100WBC
  PLATELET COUNT: 635.33 x10E3/uL
  ALANINE AMINOTRANSFERASE: 52 u/L
  ALBUMIN: 4.53 G/DL
  ALKALINE PHOSPHATASE: 362 u/L
  ASPARTATE AMINOTRANSFERASE: 82.33 u/L
  BLOOD UREA NITROGEN: 20 mg/dL
  CARBON DIOXIDE: 25 mmol/L
  CHLORIDE: 105.67 MEQ/L
  CHOLESTEROL: 71.33 mg/dL
  CREATINE PHOSPHOKINASE: 253 u/L
  CREATININE: 0.26 mg/dL
  GLUCOSE: 148 mg/dL
  LACTATE DEHYDROGENASE: 409.67 u/L
  LIPASE: 11 u/L
  PHOSPHORUS: 11.9 mg/dL
  POTASSIUM: 6.52 MEQ/L
  SODIUM: 146.6 MEQ/L
  TOTAL BILIRUBIN: 0.2 mg/dL
  TOTAL PROTEIN: 6.2 G/DL
  URIC ACID: 1.47 mg/dL

From ChEMBL document CHEMBL3885881, “DrugMatrix”
